Test system: DFP-induced status epilepticus
Conditions: rat, in vivo

| Structure (SMILES) | termination of status epilepticus / EEG epileptiform activity | effect on behavioral seizure scores induced by DFP | mortality |
| --- | --- | --- | --- |
| CCCC(CCC)C(=O)[O-].[Na+] [sodium valproate] | intermittent spikes and seizure activity during the whole 5 h of EEG recording | – | – |
| Cc1ncc2n1-c1ccc(Cl)cc1C(c1ccccc1F)=NC2 [Midazolam, midazolam] | – | in-effective in reducing the behavioral seizure scores | no mortality |

From patent US20200030304A1 (priority 2017, published 2020)
